Results reported in patent EP0717738B1, “SUBSTITUTED OXAZINE AND THIAZINE OXAZOLIDINONE ANTIMICROBIALS” (priority 1993, dated 1995).
In brackets after ≈: the same amount, converted by molar mass. Several values for one entry are separate records, joined by “and”; a condition that tells them apart may be missing. Identical values can stand only once. Like-named read-outs stand apart in the source and are kept apart here.

Experiments:
[1] = tested on: M. avium Lowell Young; test: In vitro MIC by standard dilution method, M. avium Lowell Young; conditions: Mycobacterium avium, read-out: MIC M. avium Lowell Young
Description: (§1) The in vitro activity reported in Table 2 was conducted by standard dilution methods known to those skilled in the art. Briefly, serial two-fold dilutions of antibiotic are prepared in a diluent, and a standard volume of mycobacterial growth medium is added to drug aliquot. The medium is inoculated with a standardized mycobacterial cell suspension, and then incubated under appropriate conditions. Following incubation, the Minimal Inhibitory Concentration (MIC) is determined by visual observation. The MIC is defined as the lowest drug concentration (in µg/ml) required to inhibit mycobacterial growth.

[2] = tested on: M. avium LPR; test: In vitro MIC by standard dilution method, M. avium LPR; conditions: Mycobacterium avium, read-out: MIC M. avium LPR
Description: as §1

[3] = tested on: M. tuberculosis 91-2225; test: In vitro MIC by standard dilution method, M. tuberculosis; assay type: cell-based; conditions: Mycobacterium tuberculosis, 912225; lowest concentration required to kill the organism or inhibit its growth in vitro; visual observation
[4] = tested on: M. tuberculosis (Erdman strain); test: In vivo antimycobacterial activity, organ counts in infected CD-1 mice; set-up: species or system Mycobacterium tuberculosis; conditions: CD-1 mice infected intravenously with 1 x 10^7 M. tuberculosis
Description: The in vivo data for Table 3 was obtained from CD-1 mice infected intravenously with 1 x 10^7 viable M. tuberculosis (Erdman strain). Twenty-four hours later drug treatment was initiated. All the drugs were given by oral gavage twice daily for four weeks. At the end of therapy, viable cell counts were determined from homogenates of spleens and lungs.

[5] = tested on: S. aureus UC® No. 9213; test: Murine Assay: in vivo antimicrobial activity, survival of infected mice; set-up: species or system Staphylococcus aureus; conditions: survival over six days; for ED50: Staphylococcus aureus, oral treatment one hour and five hours after infection, probit analysis
Description: Antimicrobial activity was tested in vivo using the Murine Assay procedure. Groups of female mice (six mice of 18-20 grams each) were injected intraperitoneally with Staphylococcus aureus bacteria which were thawed just prior to use and suspended in brain heart infusion with 4% brewers yeast (Staphylococcus aureus) or brain heart infusion (Streptococcus species). Antibiotic treatment at six dose levels per drug was administered one hour and five hours after infection by either oral intubation or subcutaneous routes. Survival was observed daily for six days. ED50 values based on mortality ratios were calculated using probit analysis. The subject compounds were compared against vancomycin as a control.

[6] = 100 mg/kg by oral gavage twice daily for four weeks
[7] = UC9213, po, 144 h, read-out: ED50 (mg/kg) Example, PO, female mice infected intraperitoneally
[8] = UC9213, 144 h, female mice infected intraperitoneally, read-out: ED50 (mg/kg) Example, PO
[9] = positive control, 25 mg/kg orally twice daily for four weeks

Compound: CC[C@H]1OC(=O)[C@H](C)[C@@H](O[C@H]2C[C@@](C)(OC)[C@@H](O)[C@H](C)O2)[C@H](C)[C@@H](O[C@@H]2O[C@H](C)C[C@H](N(C)C)[C@H]2O)[C@](C)(O)C[C@@H](C)CN(C)[C@H](C)[C@@H](O)[C@]1(C)O [AZITHROMYCI N, azithromycin, reference compound]
- MIC [1]: 4 µg/mL (≈ 5.34 µM)
- MIC [2]: 8 µg/mL (≈ 10.7 µM)

Compound: CC(=O)NC[C@H]1CN(c2ccc(N3CCSCC3)c(F)c2)C(=O)O1 [Example 1, (S)-N-[[3-[3-fluoro-4-(4-thiomorpholinyl)phenyl]-2-Oxo-5-oxazolidinyl]methyl]acetamide]
- MIC [3]: 0.5 µg/mL (≈ 1.41 µM)
- Log10 Colony-Forming Units of Mycobacterium tuberculosis Per Organ, Lung [4, 6]: 3.59
- Log10 Colony-Forming Units of Mycobacterium tuberculosis Per Organ, Spleen [4, 6]: 4.61
- MIC [1]: 1 µg/mL (≈ 2.83 µM)
- ED50 [5, 7]: 1.25 mg/kg
- MIC [2]: 4 µg/mL (≈ 11.3 µM)

Compound: CC(=O)NC[C@H]1CN(c2ccc(N3CCS(=O)(=O)CC3)c(F)c2)C(=O)O1 [Example 2, (S)-N-[[3-[3-fluoro-4-(1,1-dioxothiomorpholin-4-yl)phenyl]-2-oxo-5-oxazolidinyl]methyl]acetamide]
- MIC [3]: 0.5 µg/mL (≈ 1.3 µM)
- MIC [1]: 2 µg/mL (≈ 5.19 µM)
- ED50 [5, 7]: 2 mg/kg
- MIC [2]: 4 µg/mL (≈ 10.4 µM)

Compound: CC(=O)NC[C@H]1CN(c2ccc(N3CC[S+]([O-])CC3)c(F)c2)C(=O)O1 [Example 3, (S)-N-[[3-[3-fluoro-4-(1-oxothiomorpholin-4-yl)phenyl]-2-oxo-5-oxazolidinyl]methyl]acetamide]
- ED50 [5, 8]: 3.4 mg/kg

Compound: CC(=O)NC[C@H]1CN(c2cc(F)c(N3CCOCC3)c(F)c2)C(=O)O1 [Example 4]
- Log10 Colony-Forming Units of Mycobacterium tuberculosis Per Organ, Lung [4, 6]: 5.03
- Log10 Colony-Forming Units of Mycobacterium tuberculosis Per Organ, Spleen [4, 6]: 5.24
- ED50 [5, 7]: 5.5 mg/kg

Compound: CC(=O)NC[C@H]1CN(c2ccc(N3CCOCC3)c(F)c2)C(=O)O1 [Example 5]
- ED50 [5, 8]: 5.6 mg/kg

Compound: O=CNC[C@H]1CN(c2ccc(N3CCOCC3)c(F)c2)C(=O)O1 [Example 8]
- ED50 [5, 8]: 12.4 mg/kg

Compound: COC(=O)NC[C@H]1CN(c2ccc(N3CCOCC3)c(F)c2)C(=O)O1 [Example 9]
- ED50 [5, 8]: 4.4 mg/kg

Compound: O=C(NC[C@H]1CN(c2ccc(N3CCOCC3)c(F)c2)C(=O)O1)C(Cl)Cl [Example 10]
- ED50 [5, 8]: 6.8 mg/kg

Compound: NNC(=O)c1ccncc1 [ISONIAZID, Isoniazid, reference compound]
- MIC [3]: ≤ 0.015 µg/mL
- Log10 Colony-Forming Units of Mycobacterium tuberculosis Per Organ, Lung [4, 9]: 3.81
- Log10 Colony-Forming Units of Mycobacterium tuberculosis Per Organ, Spleen [4, 9]: 4.36

Compound: CN[C@H](CC(C)C)C(=O)N[C@H]1C(=O)N[C@@H](CC(N)=O)C(=O)N[C@H]2C(=O)N[C@H]3C(=O)N[C@H](C(=O)N[C@H](C(=O)O)c4cc(O)cc(O)c4-c4cc3ccc4O)[C@H](O)c3ccc(c(Cl)c3)Oc3cc2cc(c3O[C@@H]2O[C@H](CO)[C@@H](O)[C@H](O)[C@H]2O[C@H]2C[C@](C)(N)[C@H](O)[C@H](C)O2)Oc2ccc(cc2Cl)[C@H]1O [Vancomycin, vancomycin, reference compound]
- ED50 (mg/kg) Vancomycin, SC ([5]; vancomycin control run alongside the example of the same row, female mice infected intraperitoneally, subcutaneous treatment one hour and five hours after infection, 8640 min): 2.0 mg/kg and 3.9 mg/kg
